# In patent US11840686B2, “Modulation of prekallikrein (PKK) expression” (Ionis Pharmaceuticals, Inc., priority 2013, dated 2023):
# Strand notation (5' to 3'): a small letter for the sugar, then the base; units joined by * are phosphorothioate-linked, units joined directly phosphodiester-linked; [ ] holds rarer units or linkages, { } end groups; capitals alone tell only the bases. e = 2'-O-(2-methoxyethyl) (MOE); [5mC] = 5-methylcytosine; d = 2'-deoxy (DNA)
# Test system: human PKK mRNA
# Experiment: Antisense inhibition of human PKK mRNA in HepaRG cells, 5,000 nM (Example 2)
# Assay type: cell-based
# In short: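 qRT-PCR (RTS3454) read-out, RIBOGREEN-normalized; % inhibition vs untreated cells. HepaRG, 20,000 cells/well, electroporation, 5,000 nM ASO, ~24 h.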
# [1] = Table 8, HepaRG cells, electroporation with 5,000 nM antisense oligonucleotide, approx. 24 hours, PKK mRNA by RT-PCR (RTS3454), relative to untreated control cells
# [2] = HepaRG cells, 5,000 nM antisense oligonucleotide, 5-10-5 gapmers, Table 17
# [3] = Table 9 experiment, HepaRG cells, 20,000 cells per well, electroporation with 5,000 nM antisense oligonucleotide, approx. 24 hours, PKK mRNA by RT-PCR (RTS3454), relative to untreated control cells
# [4] = Table 10 experiment, HepaRG cells, 20,000 cells per well, electroporation with 5,000 nM antisense oligonucleotide, approx. 24 hours, PKK mRNA by RT-PCR (RTS3454), relative to untreated control cells
# [5] = human PKK mRNA, HepaRG cells, 5,000 nM antisense oligonucleotide, Table 18
# [6] = human PKK mRNA in HepaRG cells, 5-10-5 gapmers, Table 14
# [7] = human PKK mRNA, HepaRG cells, 5-10-5 motif oligonucleotides targeting SEQ ID NO: 1 and 10
# [8] = HepaRG cells, electroporation, 5,000 nM antisense oligonucleotide, approx. 24 hours, primer probe set RTS3454, relative to untreated control cells, Table 11
# [9] = HepaRG cells, electroporation, 5,000 nM antisense oligonucleotide, approx. 24 hours, primer probe set RTS3454, relative to untreated control cells, Table 12
# [10] = Table 13, human PKK mRNA in HepaRG cells, 5-10-5 gapmers
substance,measurement,setting,value
547420 (e[5mC]*e[5mC]*eA*eT*eA*dG*dA*dT*dA*dA*dT*d[5mC]*dT*dT*dA*eA*eG*eA*eA*eA; antisense) [compound 547420],% inhibition,[1],8%
547020 (eG*eG*eA*eT*e[5mC]*dG*dG*dT*dG*dG*dT*dG*dG*dG*dA*eT*eT*eG*eG*eT; antisense) [compound 547020],% inhibition,[2],47%
547055 (eG*e[5mC]*eT*e[5mC]*e[5mC]*dT*dG*dG*d[5mC]*dA*dG*d[5mC]*dA*dA*dT*eG*eA*e[5mC]*e[5mC]*e[5mC]; antisense) [compound 547055],% inhibition,[2],70%
546330 (antisense eT*eT*eT*e[5mC]*eT*d[5mC]*d[5mC]*dT*dT*d[5mC]*dG*dA*dG*dA*dA*eG*e[5mC]*e[5mC]*e[5mC]*e[5mC]) [compound 546330],% inhibition,[3],55%
same,% inhibition,[4],67%
548763 (antisense e[5mC]*eT*e[5mC]*eT*dA*dA*d[5mC]*dA*dG*dT*dA*dT*d[5mC]*eA*e[5mC]*eT*eG) [compound 548763],% inhibition,[5],44%
546882 (eT*eA*eG*eT*eT*dT*d[5mC]*d[5mC]*dT*dA*dT*dA*dA*d[5mC]*dA*eG*eT*eA*eT*e[5mC]; antisense) [compound 546882],% inhibition,[6],24%
547649 (eA*e[5mC]*e[5mC]*eT*eA*dT*dA*dA*d[5mC]*dA*dG*dT*dA*dT*d[5mC]*eA*e[5mC]*eT*eG*eT; antisense) [compound 547649],% inhibition,[7],73%
547016 (eG*eT*eA*eG*eG*dT*dG*dG*dT*dG*dG*dG*dA*dT*dT*eG*eG*eT*eG*eG; antisense) [compound 547016],% inhibition,[2],62%
547507 (antisense e[5mC]*eA*eG*eG*e[5mC]*dT*d[5mC]*dA*dG*dA*dA*dT*dT*dT*dG*eA*e[5mC]*eT*eT*eG) [compound 547507],% inhibition,[8],56%
546313 (antisense eG*eG*e[5mC]*eG*eA*dT*dA*dT*d[5mC]*dA*dT*dG*dA*dT*dT*e[5mC]*e[5mC]*e[5mC]*eT*eT) [compound 546313],% inhibition,[3],60%
same,% inhibition,[4],75%
547503 (antisense eA*e[5mC]*eT*e[5mC]*eA*dG*dG*dT*dT*dG*dT*dA*dA*dA*dA*eA*eT*eT*eG*e[5mC]) [compound 547503],% inhibition,[8],66%
546862 (eA*eA*e[5mC]*eT*eA*dT*dA*dA*d[5mC]*dA*dA*dT*dA*dT*d[5mC]*eA*e[5mC]*eT*eG*eT; antisense) [compound 546862],% inhibition,[6],0%
548714 (DNA eT*e[5mC]*eA*d[5mC]*dT*dG*dT*dA*d[5mC]*dT*dA*dG*dT*eT*eT*e[5mC]; antisense) [compound 548714],% inhibition,"HepaRG cells, 5,000 nM antisense oligonucleotide, human PKK mRNA, Table 18",15%
547675 (antisense eT*eG*eT*e[5mC]*e[5mC]*dT*dA*dT*dA*dA*d[5mC]*dT*dA*dT*dA*eA*e[5mC]*eA*eA*eT) [compound 547675],% inhibition,[7],10%
547530 (antisense eA*e[5mC]*eA*eA*e[5mC]*dA*d[5mC]*dA*d[5mC]*dA*dG*dT*d[5mC]*dA*dT*eG*eG*eA*eG*eA) [compound 547530],% inhibition,[9],63%
547580 (eA*eT*e[5mC]*eA*e[5mC]*dT*dG*dT*d[5mC]*d[5mC]*dT*dA*dT*dA*dA*e[5mC]*eT*e[5mC]*eT*eA; antisense) [compound 547580],% inhibition,[10],61%
547000 (eT*e[5mC]*eT*eG*eT*dT*dA*d[5mC]*d[5mC]*dT*dT*dG*dA*dG*dG*eA*eT*eT*eG*eT; antisense) [compound 547000],% inhibition,[2],63%
546366 (antisense eT*eG*e[5mC]*e[5mC]*eT*dA*dG*dA*d[5mC]*dT*d[5mC]*dT*dG*dG*dA*e[5mC]*eT*eG*e[5mC]*eT) [compound 546366],% inhibition,[8],79%
546359 (antisense eG*e[5mC]*eA*eT*e[5mC]*dT*dG*dA*dG*d[5mC]*dT*dT*dT*dT*d[5mC]*e[5mC]*eA*eT*e[5mC]*eA) [compound 546359],% inhibition,[8],79%
547745 (eT*eT*eG*eG*eT*dG*dG*dT*dG*dG*dG*dA*dT*dT*dG*eG*eT*eG*eG*e[5mC]; antisense) [compound 547745],% inhibition,[2],55%
547542 (antisense eA*eT*eA*e[5mC]*eT*d[5mC]*dG*d[5mC]*d[5mC]*dT*dT*dT*dG*dT*dG*eA*e[5mC]*eT*e[5mC]*eG) [compound 547542],% inhibition,[9],35%
547462 (antisense eG*eT*eG*eT*eA*dA*dT*dT*d[5mC]*dA*dA*dA*dG*dG*dA*eG*e[5mC]*e[5mC]*eT*eG) [compound 547462],% inhibition,[3],59%
same,% inhibition,[4],54%
547674 (eA*e[5mC]*eA*eA*eT*dA*dT*d[5mC]*dA*d[5mC]*dT*dG*dT*dA*d[5mC]*e[5mC]*eT*eT*eT*eA; antisense) [compound 547674],% inhibition,[7],53%
546156 (eG*eA*eA*eT*eG*dT*dG*d[5mC]*dA*d[5mC]*d[5mC]*dT*d[5mC]*dA*dT*e[5mC]*eT*eG*eG*e[5mC]; antisense) [compound 546156],% inhibition,"HepaRG cells, electroporation with 5,000 nM antisense oligonucleotide, approximately 24 hours, PKK mRNA by RT-PCR (RTS3454), relative to untreated control cells, Table 5 experiment",81%
546795 (eG*eT*e[5mC]*eT*e[5mC]*dG*dA*dT*dG*dG*d[5mC]*dA*dA*dG*d[5mC]*eT*eG*eT*eA*e[5mC]; antisense) [compound 546795],% inhibition,[10],72%
547029 (eT*e[5mC]*eT*eT*e[5mC]*dT*dA*dG*dG*dG*d[5mC]*d[5mC]*dA*d[5mC]*dA*e[5mC]*e[5mC]*eT*e[5mC]*eT; antisense) [compound 547029],% inhibition,[2],50%
547668 (e[5mC]*eA*eA*e[5mC]*eT*dA*dT*dA*dA*d[5mC]*dA*dG*dT*dA*dT*e[5mC]*eA*e[5mC]*eT*eG; antisense) [compound 547668],% inhibition,[7],44%
546493 (e[5mC]*eA*eT*eA*e[5mC]*dT*d[5mC]*dG*d[5mC]*d[5mC]*dT*dT*dT*dG*dT*eG*eA*e[5mC]*eT*e[5mC]; antisense) [compound 546493],% inhibition,[9],35%
547665 (eT*eG*eT*eA*e[5mC]*d[5mC]*dT*dA*dT*dA*dA*d[5mC]*dT*dA*dT*eA*eA*e[5mC]*eA*eG; antisense) [compound 547665],% inhibition,[7],10%
548760 (antisense eT*eA*eA*e[5mC]*dA*dG*dT*dA*dT*d[5mC]*dA*d[5mC]*dT*eG*eT*eA*e[5mC]) [compound 548760],% inhibition,[5],53%
546884 (eA*e[5mC]*eT*eA*eG*dT*dT*dT*d[5mC]*d[5mC]*dT*dA*dT*dA*dA*e[5mC]*eA*eG*eT*eA; antisense) [compound 546884],% inhibition,[6],6%
547504 (antisense eG*eA*eA*e[5mC]*eT*d[5mC]*dA*dG*dG*dT*dT*dG*dT*dA*dA*eA*eA*eA*eT*eT) [compound 547504],% inhibition,[8],37%
546803 (e[5mC]*e[5mC]*e[5mC]*e[5mC]*eA*dT*dA*d[5mC]*dA*dT*d[5mC]*dT*dA*dT*dG*e[5mC]*eA*eA*eA*eT; antisense) [compound 546803],% inhibition,[10],40%
546864 (eA*eT*eA*eA*e[5mC]*dT*dA*dT*dA*dA*d[5mC]*dA*dA*dT*dA*eT*e[5mC]*eA*e[5mC]*eT; antisense) [compound 546864],% inhibition,[6],0%
546290 (antisense e[5mC]*e[5mC]*e[5mC]*e[5mC]*eA*dA*dG*dA*dA*dG*dA*dG*dT*dT*dT*eG*eT*eT*e[5mC]*e[5mC]) [compound 546290],% inhibition,[1],86%
546394 (eG*eT*e[5mC]*eA*eT*dG*dG*dA*dG*dA*dT*d[5mC]*dT*d[5mC]*dA*eG*eT*eT*eG*e[5mC]; antisense) [compound 546394],% inhibition,[8],71%
